Read-outs that look alike come from different tables or passages of the source.
How the values were obtained:
MDA-MB-231 [1] = details: reported on the National Cancer Institute website; cited from earlier work
MDA-MB-231 [2] = assay: 5FU toxicity in MDA-MB-231 (drug concentration vs. % cell death, Hill-Slope fit); type: cell-based; details: Homo sapiens; MDA-MB-231, % cell death, Hill-Slope curve fit
[3] = cited from earlier work; for LogP (Drug): drug named
yCD = biological target: T1, yCD (Saccharomyces cerevisiae, UniProt Q12178); assay: Enzyme activity of yCD (His tag cleaved); type: biochemical, S. cerevisiae
T1 construct: The resulting 474 bp gene was subcloned into pET-15b; histidine tag (pET-15b) (N, cleaved yes); made in house; host or cells: E. coli BL21(DE3)
T1 sequence (Q12178 whole entry): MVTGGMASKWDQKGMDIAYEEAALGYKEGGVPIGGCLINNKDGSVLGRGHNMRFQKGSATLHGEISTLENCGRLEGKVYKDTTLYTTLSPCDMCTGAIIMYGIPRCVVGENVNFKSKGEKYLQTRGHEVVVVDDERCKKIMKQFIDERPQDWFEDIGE
Description: (§1) The S. cerevisiae yeast cytosine deaminase (yCD) enzyme was cloned and expressed. The resulting 474 bp gene was subcloned into pET-15b to facilitate purification of the protein via a fused histidine tag and transformed into competent BL21(DE3) cells for protein expression. An estimate of about 25-30 mg of pure yCD-His was collected from a 1-liter culture. Thrombin cleavage of the histidine tag on yCD-His was achieved by incubating the protein for 2 hours at 23° C. in thrombin cleavage buffer. Enzyme activity characteristics for yCD and yCD-His was investigated using both the prodrug 5FC and the enzyme's natural substrate, the DNA base cytosine. Five-FC turnover rates remained within 10^5 M^−1·s^−1 (Table 1) for both proteins (see E. Kievit et al. Cancer Res. 2000, 60:6649-6655). The diffusion controlled limit for extremely efficient enzymes and their substrates in solution is in the range 10^8-10^9 M^−1·s^−1, therefore it was concluded that yCD was a very efficient pretargeting enzyme for catalyzing 5FC to 5FU conversion, especially applicable to GDEPT.

yCD-His = biological target: T2, yCD-His (Saccharomyces cerevisiae, UniProt Q12178); assay: Enzyme activity of yCD-His (substrate turnover); type: biochemical, S. cerevisiae
T2 construct: The resulting 474 bp gene was subcloned into pET-15b; made in house; host or cells: E. coli BL21(DE3)
T2 sequence (Q12178 whole entry): as above
Description: as §1

Structure (SMILES): O=c1[nH]cc(F)c(=O)[nH]1 [5-FU, 5-fluorouracil]
- IC50 (MDA-MB-231 [1]): 0.9 µM
- IC50 (MDA-MB-231 [2]): 2.9 µM
- LogP (Drug) [3]: −2.17

Structure (SMILES): CCc1c2c(nc3ccc(O)cc13)-c1cc3c(c(=O)n1C2)COC(=O)[C@]3(O)CC [SN-38, 7-ethyl-10-hydroxycamptothecin]
- LogP (Drug) [3]: +2.02

Structure (SMILES): COc1cccc2c1C(=O)c1c(O)c3c(c(O)c1C2=O)C[C@@](O)(C(=O)CO)C[C@@H]3O[C@H]1C[C@H](N)[C@H](O)[C@H](C)O1 [DOX, doxorubicin]
- LogP (Drug) [3]: +0.36

Structure (SMILES): Nc1nc(=O)[nH]cc1F [5-FC, 5-fluorocytosine]
- kcat (yCD): 448 s⁻¹
- LogP (Prodrug) ([3]; prodrug column): −1.79
- kcat (yCD-His): 315 s⁻¹

Structure (SMILES): Nc1cc[nH]c(=O)n1 [Cytosine, cytosine]
- kcat (yCD): 741 s⁻¹
- kcat (yCD-His): 607 s⁻¹

From US20090232762A1, “COMPOSITIONS FOR DELIVERY OF THERAPEUTIC AGENTS” (priority 2008, published 2009)
